The values that follow come from patent publication US12319703B2, “Macrocyclic fused pyrazoles as Mcl-1 inhibitors” (ASCENTAGE PHARMA (SUZHOU) CO., LTD., priority 2019, dated 2025).

Values after ≈ are worked out from the molar mass of the structure shown.

For series [1] the following is noted: from CCOC(=O)c1c(CCCOc2cc(S)cc3ccccc23)c2ccc(Cl)c(-c3c(CSCc4cc(CBr)n(C)n4)nn4c3CCC4)c2n1C; thioether bond; K2CO3; acetonitrile; 3.14 mM; 25.0 °C; 3.0 h; 6 steps.
Series [2] addresses T1, Mcl-1 protein (residues 171-323) (Homo sapiens, UniProt Q07820).
T1 construct: Tag-free Mcl-1 protein (residues 171-323) was used in the FP assay
As to the kind of experiment: Inhibition of Mcl-1 by fluorescence polarization (FP) competitive binding assay. The note with it: FAM-Bid tracer 2 nM, Mcl-1 20 nM, 30 min. The essentials:
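FAM-Bid peptide (2 nM) was competed against Mcl-1 (20 nM) in PBS with 0.01% BGG and 0.01% Triton X-100 at 5% final DMSO. Anisotropy was read as mP over a 10-point dilution series. IC50 came from a sigmoidal dose-response nonlinear fit.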
(In general: Fluorescence polarisation rises when a labelled molecule tumbles more slowly, as on binding a larger partner.)

The subject of another series is OPM-2 cells. Put plainly: Cell viability assay (OPM-2 cells), CCK-8. The note with it: Homo sapiens, OPM-2, 24 h, WST, 5% FBS, read-out: OPM2 (WST, 5% FBS). The format is cell-based. Put shortly: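 OPM-2 cells from DSMZ were tested for viability with a Cell Counting Kit-8 (CCK-8) assay. Serially diluted compound (100 μL) was added to 96-well plates, then 100 μL of cell suspension (20000 cells/well) was added, and plates were incubated at 37° C. under 5% CO2 for 24 hours. After 20 μL CCK-8 solution and 4 hours of incubation, absorbance was read at 450 nm. Readings were normalized to vehicle and IC50 was fitted by nonlinear regression in GraphPad Prism 6.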

Another series can be described thus: Kinetic solubility assay. The format is physicochemical. The note with it: PBS buffer pH 6.5, aqueous buffer, thermodynamic from solid; pH 6.5 PBS buffer, HPLC; read-out: Solubility (pH 6.5, μg/mL). The procedure: Representative Compounds of the Disclosure were tested in a solubility assay with pH 6.5 PBS buffer. PBS buffer was prepared by dissolving 4.86 g of potassium dihydrogen phosphate and 5.09 g of disodium hydrogen phosphate dodecahydrate in 1 L of ultrapure water to have final pH value of 6.5. In the solubility assay, 0.5 mg of test sample was dissolved in 1 mL of methanol and the stock solution was transferred into 2 mL EP tube, and evaporated at 50° C. for 3 h. To the tube was added 1 mL of PBS buffer and the mixture was stirred and shaken for 1-2 h. The solution was allowed to stand overnight and then filtered before HPLC analysis. Another 1.5 mg of the sample was dissolved in 3 mL of methanol to prepare a calibration curve with a series of concentration range of 5-500 μM. The solubility of each sample was determined by the measured peak area in HPLC.

The next series deals with NCI-H929 cells. Put plainly: Cell viability assay (NCI-H929 cells), CCK-8. The format is cell-based. Conditions: Homo sapiens, NCI-H929, 24 h, WST, 5% FBS.

T1 sequence (Q07820 171-323): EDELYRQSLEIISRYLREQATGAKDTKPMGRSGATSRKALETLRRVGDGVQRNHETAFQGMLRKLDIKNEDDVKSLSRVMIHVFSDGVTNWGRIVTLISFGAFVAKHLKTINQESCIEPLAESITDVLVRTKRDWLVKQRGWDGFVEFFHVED

As to `Cn1nc2cc1CSc1cc(c3ccccc3c1)OCCCc1c(C(=O)O)n(C)c3c(c(Cl)ccc13)-c1c(nn3c1CCC3)CSC2`, in series [1], the ring closure, yield of all isomers amounted to 3%.

For the molecule `Cn1nc2cc1CSc1cc(c3cc(Cl)ccc3c1)OCCCc1c(C(=O)O)n(C)c3c(c(Cl)ccc13)-c1c(nn3c1COCC3)CSC2` [compound 18, (Z)-1^6,9^7-dichloro-1^1,6^1-dimethyl-2^6,2^7-dihydro-1^1H,2^4H,6^1H-10-oxa-4,8-dithia-2(3,2)-pyrazolo[5,1-c][1,4]oxazina-1(7,3)-indola-6(3,5)-pyrazola-9(3,1)-naphthalenacyclotridecaphane-1^2-carboxylic acid], the IC50 is 19 nM in series [2], 3490 nM with OPM-2 cells and 1620 nM in the series with NCI-H929 cells. Besides, the solubility in the series “Kinetic solubility assay” was less than 1 µg/mL.

For the molecule `Cn1nc2cc1CSc1cc(c3ccccc3c1)OCCCc1c(C(=O)O)n(C)c3c(c(Cl)ccc13)-c1c(nn3c1CSCC3)CSC2` [compound 21, (Z)-1^6-chloro-1^1,6^1-dimethyl-2^6,2^7-dihydro-1^1H,2^4H,6^1H-10-oxa-4,8-dithia-2(3,2)-pyrazolo[5,1-c][1,4]thiazina-1(7,3)-indola-6(3,5)-pyrazola-9(3,1)-naphthalenacyclotridecaphane-1^2-carboxylic acid], the IC50 in series [2] amounted to 15.8 nM; in the series with OPM-2 cells, 291 nM; in the series with NCI-H929 cells, 116 nM. Moreover, the solubility in the series “Kinetic solubility assay” amounted to 3 µg/mL (≈ 4.19 µM).

`Cn1nc2cc1CSc1cc(c3ccccc3c1)OCCCc1c(C(=O)O)n(C)c3c(c(Cl)ccc13)-c1c(nn3c1CCCCC3)CSC2` [compound 23, (Z)-1^6-chloro-1^1,6^1-dimethyl-2^5,2^6,2^7,2^8-tetrahydro-1^1H,2^4H,6^1H-10-oxa-4,8-dithia-2(3,2)-pyrazolo[1,5-a]azepina-1(7,3)-indola-6(3,5)-pyrazola-9(3,1)-naphthalenacyclotridecaphane-1^2-carboxylic acid]: the IC50 in series [2] came to 10 nM; with OPM-2 cells, 195 nM; in the series with NCI-H929 cells, 100 nM. The solubility in the series “Kinetic solubility assay” was less than 1 µg/mL.

For `Cn1nc2c(Cl)c1CSc1cc(c3ccccc3c1)OCCCc1c(C(=O)O)n(C)c3c(c(Cl)ccc13)-c1c(nn3c1CCCC3)CSC2` [compound 24, (E)-1^6,6^4-dichloro-1^1,6^1-dimethyl-2^4,2^5,2^6,2^7-tetrahydro-1^1H,6^1H-10-oxa-4,8-dithia-2(3,2)-pyrazolo[1,5-a]pyridina-1(7,3)-indola-6(3,5)-pyrazola-9(3,1)-naphthalenacyclotridecaphane-1^2-carboxylic acid], the IC50 stood at 14.3 nM in series [2], 4860 nM with OPM-2 cells and 1640 nM in the series with NCI-H929 cells. Also, in “Kinetic solubility assay”, the solubility is less than 1 µg/mL.

`Cn1nc2cc1CSc1cc(c3ccc(F)cc3c1)OCCCc1c(C(=O)O)n(C)c3c(c(Cl)ccc13)-c1c(nn3c1CCCC3)CSC2` [compound 26, (Z)-1^6-chloro-96-fluoro-1^1,6^1-dimethyl-2^4,2^5,2^6,2^7-tetrahydro-1^1H,6^1H-10-oxa-4,8-dithia-2(3,2)-pyrazolo[1,5-a]pyridina-1(7,3)-indola-6(3,5)-pyrazola-9(3,1)-naphthalenacyclotridecaphane-1^2-carboxylic acid]: the IC50 in series [2] is 30.9 nM; in the series with OPM-2 cells it was 133 nM; with NCI-H929 cells, 44 nM. Besides, in “Kinetic solubility assay”, the solubility is 1 µg/mL (≈ 1.4 µM).

As for `Cn1nc2cc1CSc1cc(c3ccc(F)cc3c1)OCCCc1c(C(=O)O)n(C)c3c(c(Cl)ccc13)-c1c(nn3c1CCC3)CSC2` [compound 27, (Z)-1^6-chloro-9^6-fluoro-1^1,6^1-dimethyl-2^5,2^6-dihydro-1^1H,2^4H,6^1H-10-oxa-4,8-dithia-1(7,3)-indola-2(3,2)-pyrrolo[1,2-b]pyrazola-6(3,5)-pyrazola-9(3,1)-naphthalenacyclotridecaphane-1^2-carboxylic acid], the IC50 in series [2] was determined as 24.9 nM; in the series on OPM-2 cells, 153 nM; with NCI-H929 cells it was 51 nM. The solubility in the series “Kinetic solubility assay” stood at 52 µg/mL (≈ 74 µM).

With `Cc1cc2ccc1CSc1cc(c3ccc(F)cc3c1)OCCCc1c(C(=O)O)n(C)c3c(c(Cl)ccc13)-c1c(nn3c1CCC3)CSC2` [compound 30, 1^6-chloro-9^6-fluoro-1^1,6^3-dimethyl-2^5,2^6-dihydro-1^1H,2^4H-10-oxa-4,8-dithia-1(7,3)-indola-2(3,2)-pyrrolo[1,2-b]pyrazola-9(3,1)-naphthalena-6(1,4)-benzenacyclotridecaphane-1^2-carboxylic acid], the IC50 in series [2] was found to be 14.2 nM; in the series with OPM-2 cells, 255 nM; in the series on NCI-H929 cells, 196 nM. Moreover, the solubility in the series “Kinetic solubility assay” was less than 1 µg/mL.

Take `Cc1c2c(nn1C)CN(S(C)(=O)=O)Cc1cc(n(C)n1)CSc1cc(c3ccccc3c1)OCCCc1c(C(=O)O)n(C)c3c-2c(Cl)ccc13` [compound 36, (Z)-1^6-chloro-1^1,2^1,2^5,6^1-tetramethyl-4-(methylsulfonyl)-1^1H,2^1H,6^1H-10-oxa-8-thia-4-aza-1(7,3)-indola-2(4,3),6(3,5)-dipyrazola-9(3,1)-naphthalenacyclotridecaphane-1^2-carboxylic acid]: the values for the IC50 (in series [2]; in the series on OPM-2 cells; with NCI-H929 cells) were 19 nM, 317 nM and 71 nM, respectively. Moreover, in “Kinetic solubility assay”, the solubility worked out at 16 µg/mL (≈ 21.8 µM).

For `Cc1oc2nc1CSc1cc(c3ccccc3c1)OCCCc1c(C(=O)O)n(C)c3c(c(Cl)ccc13)-c1c(nn3c1OCC3)CSC2` [compound 38, (Z)-1^6-chloro-1^1,6^5-dimethyl-2^2,2^3-dihydro-1^1H-10-oxa-4,8-dithia-2(7,6)-pyrazolo[5,1-b]oxazola-6(2,4)-oxazola-1(7,3)-indola-9(3,1)-naphthalenacyclotridecaphane-1^2-carboxylic acid], the results for the IC50 (in series [2]; in the series on OPM-2 cells; with NCI-H929 cells) were 85 nM, 5880 nM and 5990 nM, respectively. Further, in “Kinetic solubility assay”, the solubility was determined as 127 µg/mL (≈ 185 µM).

Consider `Cn1nc2cc1CSc1cc(c3ccc(F)cc3c1)OCCCc1c(C(=O)O)n(C)c3c(c(Cl)ccc13)-c1c(nn3c1CCC3)CN(S(C)(=O)=O)C2` [compound 44, (Z)-1^6-chloro-9^6-fluoro-1^1,6^1-dimethyl-4-(methylsulfonyl)-2^5,2^6-dihydro-1^1H,2^4H,6^1H-10-oxa-8-thia-4-aza-1(7,3)-indola-2(3,2)-pyrrolo[1,2-b]pyrazola-6(3,5)-pyrazola-9(3,1)-naphthalenacyclotridecaphane-1^2-carboxylic acid], for which the IC50 worked out at 15 nM in series [2], 506 nM in the series with OPM-2 cells and 156 nM in the series on NCI-H929 cells. Further, the solubility in “Kinetic solubility assay” is greater than 400 µg/mL.

With `Cc1c2c(nn1C)CN(C1CC1)Cc1cc(n(C)n1)CSc1cc(c3ccccc3c1)OCCCc1c(C(=O)O)n(C)c3c-2c(Cl)ccc13` [compound 49, (Z)-1^6-chloro-4-cyclopropyl-1^1,2^1,2^5,6^1-tetramethyl-1^1H,2^1H,6^1H-10-oxa-8-thia-4-aza-1(7,3)-indola-2(4,3),6(3,5)-dipyrazola-9(3,1)-naphthalenacyclotridecaphane-1^2-carboxylic acid], the IC50 in series [2] came out at 21 nM; in the series with OPM-2 cells it was 167 nM; in the series with NCI-H929 cells, 55 nM. Also, the solubility in “Kinetic solubility assay” came out at 28 µg/mL (≈ 40.3 µM).
